In patent publication US9085642B2, “Peptide inhibiting rankl-rank interaction and the use thereof” (RESEARCH & BUSINESS FOUNDATION SUNGKYUNKWAN UNIVERSITY, priority 2013, dated 2015):
Entries after “also recorded” stand apart in the source; their conditions may differ. Bridge positions count the residues as written; N and C are the ends. Ends that are not written are not given here.

Test system: osteoclast precursors
Assay: Osteoclast differentiation by RANKL, TRAP assay and count of TRAP-positive multinucleated cells
Type: cell-based, rat
Conditions: RANKL-induced differentiation, peptides treated by concentrations, TRAP assay, FIGS. 6B and 7
Procedure: That is, osteoclast precursors of rats were extracted from tibia and the femoral region of 5 to 8-week male rats, and purified. The osteoclast precursors were cultured in α-MEM containing 30 ng/ml of M-CSF and 10% FBS in 96-well plates (1×10^5/ml, 200 μl/well). The cells were cultured at 37° C. in a wet atmosphere containing 5% CO2. Differentiation of the osteoclast precursors were measured by a value of tartrate-resistant acid phosphatase (TRAP) activity in vitro. The TRAP staining assay was performed using a matrix Naphthol AS phosphate in 100 mM sodium acetate (pH 5.2). TRAP-positive multinucleated cells were calculated as osteoclast-like multinucleated cells using a microscope, and the assay described above were repeated three times to obtain statistical data.
In the condition of differentiating osteoclasts by the RANKL, 5 peptides (L3-3, L3-3S, L3-3N, L3-3A, and L3-3B) manufactured in Example 5 were treated by concentrations to observe a degree of inhibition, and the results are shown in FIGS. 6 and 7.

In the case of “Ser-Asp-Cys-Glu-Cys-Ser-Arg-Arg (SDCECSRR; disulfide 3-5) [L3-3B]”, the “inhibitory effect on osteoclast differentiation” value is reported as “better effects than conventionally disclosed peptides (L3-3 and L3-3S); also recorded: extraordinarily higher inhibitory effect than L3-3A”.
